Results reported in paper doi:10.1101/2021.10.07.463234v2 (biorxiv, 2021).
Counter-ions that a name gives are not always drawn.

Biological target: SARS-CoV-2 Mac1 (Severe acute respiratory syndrome coronavirus 2, UniProt P0DTD1)
Experiment: biochemical
Conditions: for %inhibition: 100 µM, inhibitor; for inhibition at 100 µM: read-out: %inhibition

N[C@@H](Cc1cc(I)c(Oc2cc(I)c(O)c(I)c2)c(I)c1)C(=O)O [Levothyroxine sodium]
%inhibition: 4.124%

CN(C)CC/C=C1/c2ccccc2COc2ccc(CC(=O)O)cc21 [Olopatadine HCl]
inhibition at 100 µM: 2.14%

CCOc1ccc2ccccc2c1C(=O)N[C@@H]1C(=O)N2[C@@H]1SC(C)(C)[C@@H]2C(=O)O [Nafcillin Sodium]
inhibition at 100 µM: 0%

O=C(NC1CCN(CCCCC2(C(=O)NCC(F)(F)F)c3ccccc3-c3ccccc32)CC1)c1ccccc1-c1ccc(C(F)(F)F)cc1 [Lomitapide Mesylate]
%inhibition: 34.98%

COCCCN1CCC(NC(=O)c2cc(Cl)c(N)c3c2OCC3)CC1 [Prucalopride Succinate]
%inhibition: 23.93%

Nc1ccc(S(=O)(=O)NC(=O)c2ccccc2)cc1 [Sulfabenzamide]
inhibition at 100 µM: 0%

CC(S)C(=O)NCC(=O)O (stereo not shown) [Tiopronin]
inhibition at 100 µM: 0%

NCC(O)c1ccc(O)cc1 (racemic) [(+,-)-Octopamine HCl]
inhibition at 100 µM: 0%

Cc1ncc([N+](=O)[O-])n1CCO [Metronidazole]
inhibition at 100 µM: 16.9%

N[C@@H](CS)C(=O)O [L-Cysteine HCl]
inhibition at 100 µM: 0%

Oc1cc(O)c(Cl)cn1 [Gimeracil]
inhibition at 100 µM: 0%

c1ccc2[nH]c(-c3cscn3)nc2c1 [Thiabendazole]
inhibition at 100 µM: 21.5%

O=C(O)c1cc(O)c(O)c(O)c1 [Gallic acid]
inhibition at 100 µM: 0%

CC(/C=C1\SC(=S)N(CC(=O)O)C1=O)=C\c1ccccc1 [Epalrestat]
inhibition at 100 µM: 0%

CO[C@@]1(NC(=O)Cc2cccs2)C(=O)N2C(C(=O)O)=C(COC(N)=O)CS[C@@H]21 [Cefoxitin sodium]
inhibition at 100 µM: 0%

NC(=O)N1c2ccccc2CC(=O)c2ccccc21 [Oxcarbazepine]
inhibition at 100 µM: 0%

O=C(O[C@H]1C[N+]2(CCCOc3ccccc3)CCC1CC2)C(O)(c1cccs1)c1cccs1 [Aclidinium Bromide]
inhibition at 100 µM: 0%

N#Cc1cc(-c2n[nH]c(-c3ccncc3)n2)ccn1 [Topiroxostat]
inhibition at 100 µM: 0%

O=C1CN(/N=C/c2ccc(-c3ccc([N+](=O)[O-])cc3)o2)C(=O)N1 [Dantrolene sodium]
%inhibition: 11.92%

COC(=O)C1=C(C)NC(C)=C(C(=O)OCC(C)C)C1c1ccccc1[N+](=O)[O-] (stereo not shown) [Nisoldipine]
inhibition at 100 µM: 16.9%

CCNC(=O)CCC/C=C\C[C@@H]1[C@@H](/C=C/[C@@H](O)CCc2ccccc2)[C@H](O)C[C@@H]1O [Bimatoprost]
inhibition at 100 µM: 0%

Cc1ccc(C(=O)c2cc(O)c(O)c([N+](=O)[O-])c2)cc1 [Tolcapone]
inhibition at 100 µM: 0%

O=C(NC[C@H]1CN(c2ccc(N3CCOCC3=O)cc2)C(=O)O1)c1ccc(Cl)s1 [Rivaroxaban]
inhibition at 100 µM: 4.28%

Cc1nc2n(c(=O)c1CCN1CCC(c3noc4cc(F)ccc34)CC1)CCCC2O (stereo not shown) [Paliperidone]
inhibition at 100 µM: 1.55%

CC#CC(=O)N1CCC[C@H]1c1nc(-c2ccc(C(=O)Nc3ccccn3)cc2)c2c(N)nccn12 [Acalabrutinib (ACP-196)]
inhibition at 100 µM: 9.75%

COc1ccc(C(=O)c2ccccc2O)c(O)c1 [2,2′-Dihydroxy-4-methoxybenzophenone]
inhibition at 100 µM: 8.7%

CCN[C@@H]1C[C@H](N)[C@@H](O[C@H]2OC(CN)=CC[C@H]2N)[C@H](O)[C@H]1O[C@H]1OC[C@](C)(O)[C@H](NC)[C@H]1O [Netilmicin Sulfate]
inhibition at 100 µM: 0%

Cn1c(=O)c2[nH]cnc2n(C)c1=O [Aminophylline]
inhibition at 100 µM: 5.61%

C=C[C@H]1CN2CC[C@H]1C[C@H]2[C@H](O)c1ccnc2ccc(OC)cc12 [Quinine HCl Dihydrate]
inhibition at 100 µM: 0%

CC(C(=O)O)c1ccc(CC2CCCC2=O)cc1 (stereo not shown) [Loxoprofen Sodium]
%inhibition: 0%

C[N+](C)(C)CCCCCCCCCC[N+](C)(C)C [Decamethonium Bromide]
inhibition at 100 µM: 0%

Cc1ccc(NC(=O)c2ccc(CN3CC[C@H](N(C)C)C3)c(C(F)(F)F)c2)cc1Nc1nccc(-c2cncnc2)n1 [Bafetinib (INNO-406)]
inhibition at 100 µM: 0%

CN(C)CCCN1c2ccccc2Sc2ccc(Cl)cc21 [Chlorpromazine HCl]
inhibition at 100 µM: 0%

CC(=O)S[C@@H]1CC2=CC(=O)CC[C@]2(C)[C@H]2CC[C@@]3(C)[C@@H](CC[C@@]34CCC(=O)O4)[C@H]12 [Spironolactone]
inhibition at 100 µM: 6.62%

O=C(O)[C@H]1O[C@H](O)[C@H](O)[C@@H](O)[C@@H]1O [Sodium Gluconate]
inhibition at 100 µM: 0%

CC(=O)OCC(=O)[C@@]1(O)CC[C@H]2[C@@H]3CCC4=CC(=O)C=C[C@]4(C)[C@H]3[C@@H](O)C[C@@]21C [Prednisolone Acetate]
inhibition at 100 µM: 15.9%

CC(C)Oc1ccc(-c2nc(-c3cccc4c3CC[C@@H]4NCCO)no2)cc1C#N [Ozanimod (RPC1063)]
inhibition at 100 µM: 0%

COc1ccc(C[C@H](N)C(=O)N[C@H]2[C@@H](O)[C@H](n3cnc4c(N(C)C)ncnc43)O[C@@H]2CO)cc1 [Puromycin 2HCl]
inhibition at 100 µM: 4.39%

CCCC(=O)O [Sodium butyrate]
inhibition at 100 µM: 0%

CCCc1nc2c(C)cc(-c3nc4ccccc4n3C)cc2n1Cc1ccc(-c2ccccc2C(=O)O)cc1 [Telmisartan]
inhibition at 100 µM: 27.9%

C#C[C@]1(O)CC[C@H]2[C@@H]3CCC4=CCCC[C@@H]4[C@H]3C(=C)C[C@@]21CC [Desogestrel]
inhibition at 100 µM: 0%

CC(C(=O)O)c1ccc(C(=O)c2ccccc2)s1 (stereo not shown) [Tiaprofenic acid]
inhibition at 100 µM: 26.3%

Oc1c(Cl)cc(Cl)c2cccnc12 [Chloroxine]
inhibition at 100 µM: 10.2%

CCCC(CCC)C(=O)O [Divalproex Sodium]
%inhibition: 5.124%

CC(=O)O[C@]1(C(C)=O)CC[C@H]2[C@@H]3C=C(C)C4=CC(=O)CC[C@]4(C)[C@H]3CC[C@@]21C [Megestrol Acetate]
inhibition at 100 µM: 23.5%

CC(C)(Sc1cc(C(C)(C)C)c(O)c(C(C)(C)C)c1)Sc1cc(C(C)(C)C)c(O)c(C(C)(C)C)c1 [Probucol]
inhibition at 100 µM: 6.54%

CN[C@@H]1[C@@H](O)[C@@H](O[C@@H]2[C@@H](O)[C@H](O[C@H]3OC(CN)=CC[C@H]3N)[C@@H](N)C[C@H]2N)OC[C@]1(C)O [Sisomicin sulfate]
inhibition at 100 µM: 0%

CCCN(CCc1cccs1)[C@H]1CCc2c(O)cccc2C1 [Rotigotine]
inhibition at 100 µM: 6.99%

COC[C@H]1C[C@@H](c2nc(-c3ccc4c(c3)COc3cc5c(ccc6nc([C@@H]7CC[C@H](C)N7C(=O)[C@@H](NC(=O)OC)C(C)C)[nH]c65)cc3-4)c[nH]2)N(C(=O)[C@H](NC(=O)OC)c2ccccc2)C1 [Velpatasvir]
inhibition at 100 µM: 3.54%

CN1C(=O)COc2c(C(=O)NC3CN4CCC3CC4)cc(Cl)cc21 (stereo not shown) [Azasetron HCl]
inhibition at 100 µM: 0%

Nc1nc2ccc(OC(F)(F)F)cc2s1 [Riluzole]
inhibition at 100 µM: 0%

C=CCN1CCCC1CNC(=O)c1cc2nn[nH]c2cc1OC (stereo not shown) [Alizapride HCl]
inhibition at 100 µM: 0%

CC(c1cc2ccccc2s1)N(O)C(N)=O (stereo not shown) [Zileuton]
inhibition at 100 µM: 0%

C[C@H](CCC(=O)O)[C@H]1CC[C@H]2[C@@H]3[C@H](O)C[C@@H]4C[C@H](O)CC[C@]4(C)[C@H]3C[C@H](O)[C@]12C [Cholic acid]
inhibition at 100 µM: 0%

Cc1nnc(C(=O)NC(C)(C)c2nc(C(=O)NCc3ccc(F)cc3)c(O)c(=O)n2C)o1 [Raltegravir (MK-0518)]
%inhibition: 3.868%
